Measured values reported in patent US8283474B2, “Azabicyclo (3.1.0) hexane derivatives useful as modulators of dopamine D3 receptors” (Glaxo Group Limited, priority 2004, dated 2012).

target: T1, dopamine D3 receptor (Homo sapiens, UniProt P35462); test: GTPγS scintillation proximity assay (GTPγS-SPA), antagonist format, CHO_D3 membranes; type: biochemical; settings: difference in functional pKi at D3 versus the opposite enantiomer of the same Example
T1 construct: expressed in transfected cells; membrane preparation
T1 sequence (P35462 whole entry): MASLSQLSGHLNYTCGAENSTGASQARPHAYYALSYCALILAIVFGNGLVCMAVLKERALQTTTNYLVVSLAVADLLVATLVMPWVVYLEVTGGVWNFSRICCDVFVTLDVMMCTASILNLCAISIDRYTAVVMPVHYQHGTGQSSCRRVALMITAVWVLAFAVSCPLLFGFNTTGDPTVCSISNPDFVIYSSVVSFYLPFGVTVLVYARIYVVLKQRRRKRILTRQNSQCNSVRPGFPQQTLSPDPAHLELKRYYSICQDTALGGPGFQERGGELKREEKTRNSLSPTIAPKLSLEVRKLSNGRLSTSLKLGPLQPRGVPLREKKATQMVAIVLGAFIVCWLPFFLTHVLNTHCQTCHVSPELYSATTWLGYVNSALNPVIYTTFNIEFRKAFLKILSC
Experimental: Functional potency and intrinsic activity of compounds of this invention can be measured by the following GTPγS scintillation proximity assay (GTPγS-SPA). Cells used in the study are Chinese Hamster Ovary (CHO) Cells.
Cell membranes are prepared as follows. Cell pellets are resuspended in 10 volumes of 50 mM HEPES, 1 mM EDTA pH 7.4, using KOH. On the day the following proteases are added to the buffer just prior to giving the homogenisation buffer. 10^−6M Leupeptin(Sigma L2884)−5000×stock=5 mg/ml in buffer 25 ug/ml Bacitracin(Sigma B0125)−1000×stock=25 mg/ml in buffer 1 mM PMSF−1000×stock=17 mg/ml in 100% ethanol 2×10^−6M Pepstain A−1000×stock=2 mM in 100% DMSO
The cells are homogenised by 2×15 second bursts in a 1 litre Glass Waring blender in a class two biohazard cabinet. The resulting suspension is spun at 500 g for 20 mins (Beckman T21 centrifuge: 1550 rpm). The supernatant is withdrawn with a 25 ml pipette, aliquotted into pre-chilled centrifuge tubes and spun at 48,000 g to pellet membrane fragments (Beckman T1270: 23,000 rpm for 30 mins). The final 48,000 g pellet is resuspended in Homogenisation Buffer, (4× the volume of the original cell pellet). The 48,000 g pellet is resuspended by vortexing for 5 seconds and homogenized in a dounce homogenizer 10-15 stokes. The prep is distributed into appropriate sized aliquots, (200-1000 ul), in polypropylene tubes and store at −80° C. Protein content in the membrane preparations is evaluated with the Bradford protein assay.
The final top concentration of test drug is 3 uM in the assay and 11 points serial dilution curves 1:4 in 100% DMSO are carried out using a Biomek FX. The test drug at 1% total assay volume (TAV) is added to a solid, white, 384 well assay plate. 50% TAV of precoupled (for 90 mins at 4° C.) membranes, 5 μg/well, and Wheatgerm Agglutinin Polystyrene Scintillation Proximity Assay beads (RPNQ0260, Amersham), 0.25 mg/well, in 20 mM HEPES pH 7.4, 100 mM NaCl, 10 mM MgCl2, 60 μg/ml saponin and 30 μM GDP is added. The third addition was a 20% TAV addition of either buffer, (agonist format) or EC80 final assay concentration of agonist, Quinelorane, prepared in assay buffer (antagonist format). The assay was started by the addition of 29% TAV of GTPγ[^35S] 0.38 nM final (37 MBq/ml, 1160 Ci/mmol, Amersham). After all additions assay plates are spun down for 1 min at 1,000 rpm. Assay plates are counted on a Viewlux, 613/55 filter, for 5 min., between 2-6 hours after the final addition.
The effect of the test drug over the basal generates EC50 value by an iterative least squares curve fitting programme, expressed in the table as pEC50 (i.e. −log EC50). The ratio between the maximal effect of the test drug and the maximal effect of full agonist, Quinelorane, generates the Intrinsic Activity (IA) value (i.e. IA=1 full agonist, IA<1 partial agonist). fpKi values of test drug are calculated from the IC50 generated by “antagonist format” experiment, using Cheng & Prusoff equation: fKi=IC50/1+([A]/EC50) where: [A] is the concentration of the agonist […] in the assay and EC50 is the 5-HT EC50 value obtained in the same experiment. fpKi is defined as −log fKi.

Row | Compound | fpKi (D3) higher than the other Enantiomer
1 | COc1ccc([C@]23C[C@H]2CN(CCCSc2nnc(-c4cccc5nc(C)ccc45)n2C)C3)cc1 (single isomer, unassigned) [Example 1 Enantiomer 1] | > 1 log-unit
2 | Cc1ccc2c(-c3nnc(SCCCN4C[C@@H]5C[C@]5(c5ccc(Br)cc5)C4)n3C)cccc2n1 (single isomer, unassigned) [Example 2 Enantiomer 2] | > 1 log-unit
3 | Cc1ccc2c(-c3nnc(SCCCN4C[C@@H]5C[C@]5(c5ccccc5)C4)n3C)cccc2n1 (single isomer, unassigned) [Example 3 Enantiomer 2] | > 1 log-unit
4 | Cc1ccc2c(-c3nnc(SCCCN4C[C@@H]5C[C@]5(c5ccc(Cl)c(Cl)c5)C4)n3C)cccc2n1 (single isomer, unassigned) [Example 4 Enantiomer 1] | > 0.6 log-unit
5 | Cc1ccc2c(-c3nnc(SCCCN4C[C@@H]5C[C@]5(c5ccc(C(C)(C)C)cc5)C4)n3C)cccc2n1 (single isomer, unassigned) [Example 5 Enantiomer 2] | > 0.9 log-unit
6 | Cc1ncoc1-c1nnc(SCCCN2C[C@@H]3C[C@]3(c3ccc(Br)cc3)C2)n1C (single isomer, unassigned) [Example 9 Enantiomer 1] | > 1 log-unit
7 | Cc1ncoc1-c1nnc(SCCCN2C[C@@H]3C[C@]3(c3ccc(C(F)(F)F)cc3F)C2)n1C.Cl (single isomer, unassigned) [Example 16 Enantiomer 2] | > 1 log-unit
8 | Cc1ncoc1-c1nnc(SCCCN2C[C@@H]3C[C@]3(c3cccc(C(F)(F)F)c3)C2)n1C (single isomer, unassigned) [Example 17 Enantiomer 1] | > 1 log-unit
9 | COc1ccc([C@]23C[C@H]2CN(CCCSc2nnc(-c4ocnc4C)n2C)C3)cc1C(C)=O (single isomer, unassigned) [Example 19 Enantiomer 1] | > 1 log-unit
10 | Cc1ncoc1-c1nnc(SCCCN2C[C@@H]3C[C@]3(c3ccc(Cl)cc3)C2)n1C (single isomer, unassigned) [Example 20 Enantiomer 1] | > 1 log-unit
11 | Cc1ncoc1-c1nnc(SCCCN2C[C@@H]3C[C@]3(c3ccc(F)cc3)C2)n1C (single isomer, unassigned) [Example 21 Enantiomer 1] | > 1 log-unit
12 | Cc1ncoc1-c1nnc(SCCCN2C[C@]3(C)C[C@@]3(c3cccc(Cl)c3)C2)n1C (single isomer, unassigned) [Example 22 Enantiomer 1] | > 1 log-unit
13 | Cc1ncoc1-c1nnc(SCCCN2C[C@@H]3C[C@]3(c3cccc(F)c3)C2)n1C (single isomer, unassigned) [Example 23 Enantiomer 1] | > 1 log-unit
14 | COc1cccc([C@]23C[C@H]2CN(CCCSc2nnc(-c4ocnc4C)n2C)C3)c1 (single isomer, unassigned) [Example 24 Enantiomer 1] | > 1 log-unit
15 | Cc1ncoc1-c1nnc(SCCCN2C[C@@H]3C[C@]3(c3ccc(OC(F)(F)F)cc3)C2)n1C (single isomer, unassigned) [Example 30 Enantiomer 1] | > 1 log-unit
16 | Cc1ncoc1-c1nnc(SCCCN2C[C@@H]3C[C@]3(c3cc(C(F)(F)F)ccc3F)C2)n1C (single isomer, unassigned) [Example 36 Enantiomer 2] | > 1 log-unit
17 | CCC(=O)c1cc([C@]23C[C@H]2CN(CCCSc2nnc(-c4ocnc4C)n2C)C3)ccc1OC (single isomer, unassigned) [Example 71 Enantiomer 1] | > 1 log-unit
18 | Cc1nc2cc([C@]34C[C@H]3CN(CCCSc3nnc(-c5ocnc5C)n3C)C4)ccc2s1 (single isomer, unassigned) [Example 72 Enantiomer 1] | > 1 log-unit
19 | Cc1ncoc1-c1nnc(SCCCN2C[C@@H]3C[C@]3(c3ccc4c(cnn4C)c3)C2)n1C (single isomer, unassigned) [Example 74 Enantiomer 1] | > 1 log-unit
20 | Cc1ncoc1-c1nnc(SCCCN2C[C@@H]3C[C@]3(c3ccc(C(F)(F)F)cn3)C2)n1C (single isomer, unassigned) [Example 96 Enantiomer 2] | > 1 log-unit
21 | Cc1ccc2c(-c3nnc(SCCCN4CC5CC5(c5ccc(Cl)cc5)C4)n3C)cccc2n1 (single isomer, unassigned; enantiomer 1) [Example 29 Enantiomer 1] | > 1 log-unit
22 | Cc1ncoc1-c1nnc(SCCCN2C[C@@H]3C[C@]3(c3cc(F)cc(C(F)(F)F)c3)C2)n1C (single isomer, unassigned; enantiomer 1) [Example 110 Enantiomer 1] | > 1 log-unit
23 | Cc1ncoc1-c1nnc(SCCCN2C[C@@H]3C[C@]3(c3cccc(C(F)(F)F)c3F)C2)n1C (single isomer, unassigned; enantiomer 2) [Example 111 Enantiomer 2] | > 1 log-unit
